Reference: ChEMBL document CHEMBL1146635 (Bioorg Med Chem Lett, 2003)

Key:
[1] = Plasma clearance in human liver microsomes; assay type: ADME, Microsome
Cytochrome P450 3A4 = Cytochrome P450 3A4 (Homo sapiens, UniProt P08684); assay: In vitro inhibition of Cytochrome P450 3A4; assay type: ADME
[2] = tested on: Human immunodeficiency virus 1; assay: Viral spread inhibitory concentration against HIV-1 strain K-60C in MT-4 human T-lymphoid cells; assay type: functional; settings: Human immunodeficiency virus 1, T-lymphoid; read-out: CIC95
[3] = tested on: Human immunodeficiency virus 1; assay: Viral spread inhibitory concentration against HIV-1 strain NL4-3 in MT-4 human T-lymphoid cells; assay type: functional; settings: Human immunodeficiency virus 1, T-lymphoid; read-out: CIC95
[4] = tested on: Human immunodeficiency virus 1; assay: Viral spread inhibitory concentration against HIV-1 strain Q-60C in MT-4 human T-lymphoid cells; assay type: functional; settings: Human immunodeficiency virus 1, T-lymphoid; read-out: CIC95
MT4 = assay: Viral spread inhibitory concentration against HIV-1 strain V-18C in MT-4 human T-lymphoid cells; assay type: functional; settings: read-out: CIC95
[5] = target: T1, Human immunodeficiency virus type 1 protease (Human immunodeficiency virus 1, UniProt Q72874); assay: In vitro inhibition of HIV-1 protease (NL4-3 strain).
[6] = Cmax value determined in dog at a dose of 10 mg/kg by oral administration; assay type: ADME, organism-based, Canis lupus familiaris; design: dose 10 mg/kg, route oral; settings: in vivo
[7] = Area under curve determined in dog at a dose of 10 mg/kg by oral administration; assay type: ADME, organism-based, Canis lupus familiaris; design: dose 10 mg/kg, route oral; settings: in vivo
[8] = Area under curve determined in dog at a dose of 10 mg/kg by oral administration along with […] (10 mg/kg); settings: in vivo
Cytochrome P450 2D6 = Cytochrome P450 2D6 (Homo sapiens, UniProt P10635); assay: In vitro inhibition of Cytochrome P450 2D6; assay type: ADME
[9] = target: T1, Human immunodeficiency virus type 1 protease; assay: Inhibitory activity against HIV-1 protease (K-60C strain)
[10] = target: T1, Human immunodeficiency virus type 1 protease; assay: Inhibitory activity against HIV-1 protease (V-18C strain)
[11] = Cmax value determined in dog at a dose of 5 mg/kg by oral administration; assay type: ADME, organism-based, Canis lupus familiaris; design: dose 5 mg/kg, route oral; settings: in vivo
[12] = target: T1, Human immunodeficiency virus type 1 protease; assay: Inhibitory activity against HIV-1 protease (Q-60C strain)
Canis familiaris = assay: Cmax value determined in dog at a dose of 10 mg/kg by oral administration along with indinavir (10 mg/kg); settings: in vivo
[13] = Cmax value determined in dog at a dose of […] by oral administration along with […] (10 mg/kg); assay type: ADME, organism-based, Canis lupus familiaris; design: route oral; settings: in vivo

Sequence of Cytochrome P450 3A4 (P08684 whole entry): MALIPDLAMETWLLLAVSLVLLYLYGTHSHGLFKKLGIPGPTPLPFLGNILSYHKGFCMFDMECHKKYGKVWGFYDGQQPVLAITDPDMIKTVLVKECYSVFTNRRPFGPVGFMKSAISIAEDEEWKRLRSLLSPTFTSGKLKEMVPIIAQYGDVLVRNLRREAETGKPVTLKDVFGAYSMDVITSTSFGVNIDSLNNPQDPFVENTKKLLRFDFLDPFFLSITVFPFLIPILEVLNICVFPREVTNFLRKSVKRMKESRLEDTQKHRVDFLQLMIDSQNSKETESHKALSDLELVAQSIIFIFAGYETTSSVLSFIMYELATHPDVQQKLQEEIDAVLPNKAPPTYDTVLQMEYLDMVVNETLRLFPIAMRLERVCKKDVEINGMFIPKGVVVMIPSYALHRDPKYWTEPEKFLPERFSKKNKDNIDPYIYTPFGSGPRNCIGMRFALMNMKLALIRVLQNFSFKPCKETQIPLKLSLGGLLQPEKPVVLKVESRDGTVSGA
Sequence of Cytochrome P450 2D6 (P10635 whole entry): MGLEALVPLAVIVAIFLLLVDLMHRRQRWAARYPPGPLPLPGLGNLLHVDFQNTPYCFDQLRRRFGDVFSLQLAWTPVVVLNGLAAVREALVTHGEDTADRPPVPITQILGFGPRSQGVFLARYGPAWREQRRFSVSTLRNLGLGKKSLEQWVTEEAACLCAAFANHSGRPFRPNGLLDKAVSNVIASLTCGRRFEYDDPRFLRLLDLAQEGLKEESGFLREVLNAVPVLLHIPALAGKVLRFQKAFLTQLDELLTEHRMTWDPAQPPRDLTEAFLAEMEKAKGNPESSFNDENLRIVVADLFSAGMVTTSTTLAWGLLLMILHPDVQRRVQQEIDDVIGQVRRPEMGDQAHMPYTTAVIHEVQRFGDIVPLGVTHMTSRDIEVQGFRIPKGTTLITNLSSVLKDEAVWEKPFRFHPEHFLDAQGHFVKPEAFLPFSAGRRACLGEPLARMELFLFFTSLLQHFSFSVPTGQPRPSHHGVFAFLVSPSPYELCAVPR

| SMILES | IC95 [2] [nM] | IC95 [3] [nM] | IC95 [4] [nM] | IC95 (MT4) [nM] | IC50 [5] [nM] | other results |
| --- | --- | --- | --- | --- | --- | --- |
| O=C(N[C@H]1c2ccccc2OC[C@H]1O)[C@H](Cc1cccnc1)C[C@H](O)CN1CCN(Cc2ccn(-c3ccc(Cl)cc3)c2)C[C@H]1C(=O)NCC(F)(F)F | 15 | ≤ 8 | ≤ 8 | ≤ 8 | 0.03 | CLint scaled [1]: 229 mL/min/kg; IC50 (Cytochrome P450 3A4): 50 nM |
| O=C(N[C@H]1c2ccccc2OC[C@H]1O)[C@H](Cc1cccnc1)C[C@H](O)CN1CCN(Cc2ccn(-c3ccc(F)cc3)c2)C[C@H]1C(=O)NCC(F)(F)F | 15 | 15 | 15 |  | 0.05 |  |
| O=C(N[C@H]1c2ccccc2OC[C@H]1O)[C@H](Cc1cccnc1)C[C@H](O)CN1CCN(Cc2ccn(-c3cc(Cl)c(Cl)c(Cl)c3)c2)C[C@H]1C(=O)NCC(F)(F)F | 31 | ≤ 8 | ≤ 8 | 15 | 0.02 |  |
| O=C(N[C@H]1c2ccccc2OC[C@H]1O)[C@H](Cc1cccnc1)C[C@H](O)CN1CCN(Cc2ccn(-c3cccc(C(F)(F)F)c3)c2)C[C@H]1C(=O)NCC(F)(F)F | 31 | 15 | ≤ 8 |  | 0.05 |  |
| O=C(N[C@H]1c2ccccc2OC[C@H]1O)[C@H](Cc1cccnc1)C[C@H](O)CN1CCN(Cc2ccn(-c3ccccc3F)c2)C[C@H]1C(=O)NCC(F)(F)F | 62 | 15 | 31 |  | 0.16 |  |
| O=C(N[C@H]1c2ccccc2OC[C@H]1O)[C@H](Cc1cccnc1)C[C@H](O)CN1CCN(Cc2ccn(-c3cccc(Cl)c3)c2)C[C@H]1C(=O)NCC(F)(F)F | ≤ 8 | ≤ 8 | ≤ 8 | ≤ 8 | 0.05 | CLint scaled [1]: 307 mL/min/kg; IC50 (Cytochrome P450 3A4): 80 nM |
| N#Cc1cccc(-n2ccc(CN3CCN(C[C@@H](O)C[C@@H](Cc4cccnc4)C(=O)N[C@H]4c5ccccc5OC[C@H]4O)[C@H](C(=O)NCC(F)(F)F)C3)c2)c1 | 62 | 62 | ≤ 31 |  | 0.15 |  |
| O=C(N[C@H]1c2ccccc2OC[C@H]1O)[C@H](Cc1cccnc1)C[C@H](O)CN1CCN(Cc2ccn(-c3ccc(F)c(F)c3F)c2)C[C@H]1C(=O)NCC(F)(F)F | 15 | ≤ 8 | ≤ 8 | ≤ 8 | 0.05 | CLint scaled [1]: 218 mL/min/kg; Cmax [6]: 1.9 µM; AUC [7]: 4.4 µM·h; IC50 (Cytochrome P450 3A4): 50 nM; AUC [8]: 26.6 µM·h |
| N#Cc1ccc(-n2ccc(CN3CCN(C[C@@H](O)C[C@@H](Cc4cccnc4)C(=O)N[C@H]4c5ccccc5OC[C@H]4O)[C@H](C(=O)NCC(F)(F)F)C3)c2)cc1 | 125 | 62 | 31 |  | 0.1 |  |
| O=C(N[C@H]1c2ccccc2OC[C@H]1O)[C@H](Cc1cccnc1)C[C@H](O)CN1CCN(Cc2ccn(-c3ccc(C(F)(F)F)cc3)c2)C[C@H]1C(=O)NCC(F)(F)F | 15 | 15 | ≤ 8 |  | 0.04 |  |
| Cc1ccccc1-n1ccc(CN2CCN(C[C@@H](O)C[C@@H](Cc3cccnc3)C(=O)N[C@H]3c4ccccc4OC[C@H]3O)[C@H](C(=O)NCC(F)(F)F)C2)c1 | 125 | ≤ 8 | 31 | 31 | 0.16 |  |
| O=C(N[C@H]1c2ccccc2OC[C@H]1O)[C@H](Cc1cccnc1)C[C@H](O)CN1CCN(Cc2ccn(-c3ccccc3Cl)c2)C[C@H]1C(=O)NCC(F)(F)F | 62 | ≤ 8 | 31 | 31 | 0.18 |  |
| O=C(N[C@H]1c2ccccc2OC[C@H]1O)[C@H](Cc1cccnc1)C[C@H](O)CN1CCN(Cc2ccn(-c3ccc(Cl)c(Cl)c3)c2)C[C@H]1C(=O)NCC(F)(F)F | 31 | 15 | ≤ 8 | 15 | 0.02 |  |
| O=C(N[C@H]1c2ccccc2OC[C@H]1O)[C@H](Cc1cccnc1)C[C@H](O)CN1CCN(Cc2ccn(-c3cccc(F)c3)c2)C[C@H]1C(=O)NCC(F)(F)F | 31 | 15 | 15 |  | 0.05 |  |
| Cc1ccc(-n2ccc(CN3CCN(C[C@@H](O)C[C@@H](Cc4cccnc4)C(=O)N[C@H]4c5ccccc5OC[C@H]4O)[C@H](C(=O)NCC(F)(F)F)C3)c2)cc1 | 15 | 15 | ≤ 8 | 15 | 0.06 |  |
| O=C(N[C@H]1c2ccccc2OC[C@H]1O)[C@H](Cc1cccnc1)C[C@H](O)CN1CCN(Cc2ccn(-c3ccccc3)c2)C[C@H]1C(=O)NCC(F)(F)F | 31 | 15 | ≤ 8 | ≤ 8 | 0.11 | CLint scaled [1]: 332 mL/min/kg; Cmax [6]: 5.3 µM; AUC [7]: 7 µM·h; IC50 (Cytochrome P450 3A4): 400 nM; IC50 (Cytochrome P450 2D6): 12000 nM; IC50 [9]: 2.7 nM; IC50 [10]: 2.49 nM |
| Cc1cccc(-n2ccc(CN3CCN(C[C@@H](O)C[C@@H](Cc4cccnc4)C(=O)N[C@H]4c5ccccc5OC[C@H]4O)[C@H](C(=O)NCC(F)(F)F)C3)c2)c1 | 62 | ≤ 8 | ≤ 8 | ≤ 8 | 0.1 |  |
| N#Cc1ccccc1-n1ccc(CN2CCN(C[C@@H](O)C[C@@H](Cc3cccnc3)C(=O)N[C@H]3c4ccccc4OC[C@H]3O)[C@H](C(=O)NCC(F)(F)F)C2)c1 | 250 | 46 | 62 |  | 0.46 |  |
| O=C(N[C@H]1c2ccccc2OC[C@H]1O)[C@H](Cc1cccnc1)C[C@H](O)CN1CCN(Cc2ccn(-c3ccccc3C(F)(F)F)c2)C[C@H]1C(=O)NCC(F)(F)F | 500 | 38 | 500 |  | 1.32 |  |
| O=C(N[C@H]1c2ccccc2OC[C@H]1O)[C@H](Cc1cccnc1)C[C@H](O)CN1CCN(Cc2ccc(-c3ccccc3)o2)C[C@H]1C(=O)NCC(F)(F)F | ≤ 8 | ≤ 8 | ≤ 8 | ≤ 8 |  | CLint scaled [1]: 238 mL/min/kg; Cmax [11]: 0.1 µM; IC50 [9]: 0.06 nM; IC50 [12]: 0.07 nM; IC50 [10]: 0.15 nM; Cmax (Canis familiaris): 6.1 µM |
| CC(C)(C)NC(=O)[C@@H]1CN(Cc2cccnc2)CCN1C[C@@H](O)C[C@@H](Cc1ccccc1)C(=O)N[C@H]1c2ccccc2C[C@H]1O.O | > 1000 | 50 | > 1000 | > 1000 |  | Cmax [13]: 11.4 µM; AUC [8]: 12.5 µM·h |
